Laboratory results reported in ChEMBL document CHEMBL1122598, “A cannabinoid derived prototypical analgesic” (1984).

Legend:
Format in all cases: functional
[1] = species on record: Rattus norvegicus; assay: Analgesic activity was determined by rat tail clamp assay(RTC), 2 hour postdose.
[2] = species on record: Mus musculus; assay: Analgesic activity was determined by mouse phenylbenzoquinone (PBQ) induced writhing, 1 hour postdose.
[3] = species on record: Rattus norvegicus; assay: Analgesic activity was determined by rat flinch jump (FJ), 2 hour postdose.
[4] = species on record: Mus musculus; assay: Analgesic activity was determined by mouse tail flick (TF), 1 hour postdose.
[5] = species on record: Mus musculus; assay: Analgesic activity was determined by mouse hot plate (HP), 1 hour postdose.
[6] = tested on: Mus musculus; assay: Analgesic activity was determined by Mouse phenylbenzoquinone writhing test(PBQ) at a dose of 10 mg/kg subcutaneous administration.; conditions: sc
[7] = tested on: Mus musculus; assay: Analgesic activity was determined by Mouse phenylbenzoquinone writhing test(PBQ) at a dose of 32 mg/kg subcutaneous administration.; conditions: sc
[8] = tested on: Mus musculus; assay: Analgesic activity was determined by Mouse phenylbenzoquinone writhing test(PBQ) at a dose of 100 mg/kg subcutaneous administration.; conditions: sc
[9] = tested on: Mus musculus; assay: Analgesic activity was determined by Mouse phenylbenzoquinone writhing test(PBQ) at a dose of 56 mg/kg subcutaneous administration.; conditions: sc
[10] = tested on: Mus musculus; assay: Analgesic activity was determined by mouse phenylbenzoquinone writhing test(PBQ) at a dose 56 mg/kg subcutaneous administration.; conditions: sc

`CCCCCc1cc(O)c2c(c1)OC(C)(C)[C@@H]1CC[C@@H](O)C[C@@H]21` gave an MPE50 [1] of 7 mg/kg, an MPE50 [2] of 0.63 mg/kg and an MPE50 [3] of 36.4 mg/kg. The MPE50 [4] was 9.1 mg/kg and the MPE50 [5] was 34.4 mg/kg.

Compound `CCCCCCC(C)(C)c1ccc([C@H]2CCC[C@@H](O)C2)c(O)c1` has an MPE50 [1] of 4.7 mg/kg, an MPE50 [2] of 1 mg/kg and an MPE50 [3] of 4.9 mg/kg. The MPE50 [4] was 4.4 mg/kg and the MPE50 [5] was 8.1 mg/kg.

For `CCCCCc1cc(O)c2c(c1)OC(C)(C)[C@@H]1CCC(C)=C[C@@H]21` [DRONABINOL], the MPE50 [1] was 29.1 mg/kg, the MPE50 [2] was 5.9 mg/kg and the MPE50 [3] was 83.1 mg/kg. For the same compound, the MPE50 [4] was 55 mg/kg and the MPE50 [5] was over 178 mg/kg.

Work on `CCCCCCC(C)(C)c1ccc(C(C)CC(C)O)c(O)c1` (stereo unspecified) yielded an inhibition in vivo at 10 mg/kg [6] of 27%, an inhibition in vivo at 32 mg/kg [7] of 52% and an inhibition in vivo at 100 mg/kg [8] of 53%. For the same compound, the inhibition in vivo at 56 mg/kg [9] was 50% and the inhibition in vivo at 56 mg/kg [10] was 55%.

For `CN1CC[C@]23c4c5ccc(O)c4O[C@H]2[C@@H](O)C=C[C@H]3[C@H]1C5` [MORPHINE], the MPE50 [1] was 4.8 mg/kg, the MPE50 [2] was 1.8 mg/kg and the MPE50 [3] was 10.3 mg/kg. For the same compound, the MPE50 [4] was 5.7 mg/kg and the MPE50 [5] was 4.2 mg/kg.

Compound `CCCCCCC(C)(C)c1ccc(C(C)CC(C)=O)c(O)c1` (stereo unspecified) has an inhibition in vivo at 56 mg/kg [10] of 0%.

`CCCCCCC(C)(C)c1ccc([C@H]2CCCC(=O)C2)c(O)c1` was tested, and the MPE50 [1] was 26.1 mg/kg, the MPE50 [2] was 4.5 mg/kg and the MPE50 [3] was 11.5 mg/kg. The MPE50 [4] was 15.3 mg/kg and the MPE50 [5] was over 32 mg/kg.

For `CCCCCCC(C)(C)c1ccc([C@H]2CCC[C@H](O)C2)c(O)c1`, the MPE50 [1] was 12.3 mg/kg, the MPE50 [2] was 3.8 mg/kg and the MPE50 [3] was 17.8 mg/kg. It also gave an MPE50 [4] of 55.7 mg/kg and an MPE50 [5] of over 56 mg/kg.
